Experimental data: the supplement of paper PMC10307832

Columns and labels:
Assay in all cases: relative viability (nuclei count vs DMSO), 5 days (fraction); higher = more cells survive
XMD13-2 + Decitabine = compound: C1CC1C(=O)NC2=NNC3=C2C=CC(=C3)C4=CC(=CC=C4)C(=O)NC5CC5 [XMD13-2] + Nc1ncn([C@H]2C[C@H](O)[C@@H](CO)O2)c(=O)n1 [Decitabine] (partner 2 µM)
Summary of the method: (§1)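 Nuclei were stained with Hoechst during a one-step fixation (final 0.05% Triton X-100, 1% formaldehyde, 1 ug/ml Hoechst) carried out 5 days after dosing, then counted on 4× images. The cells, lung cancer lines in 1536-well plates, had been dosed by pin tool the day after seeding with one drug alone or a fixed anchor-drug dose plus five library-drug doses (not always all listed) in √10 steps. Relative viability is the nuclei count in treated wells divided by that in vehicle wells, and each value is the median of duplicate plates.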

ALW-II-49-7 + Navitoclax = compound: Cc1ccc(C(=O)Nc2cccc(C(F)(F)F)c2)cc1Nc1cncc(C(N)=O)c1 [ALW-II-49-7] + CC1(C)CCC(c2ccc(Cl)cc2)=C(CN2CCN(c3ccc(C(=O)NS(=O)(=O)c4ccc(N[C@H](CCN5CCOCC5)CSc5ccccc5)c(S(=O)(=O)C(F)(F)F)c4)cc3)CC2)C1 [Navitoclax] (partner 0.5 µM)
Summary of the method: as §1

ALW-II-49-7 + Foretinib = compound: Cc1ccc(C(=O)Nc2cccc(C(F)(F)F)c2)cc1Nc1cncc(C(N)=O)c1 [ALW-II-49-7] + COc1cc2c(Oc3ccc(NC(=O)C4(C(=O)Nc5ccc(F)cc5)CC4)cc3F)ccnc2cc1OCCCN1CCOCC1 [Foretinib] (partner 0.25 µM)
Summary of the method: as §1

Dasatinib + Foretinib = compound: Cc1nc(Nc2ncc(C(=O)Nc3c(C)cccc3Cl)s2)cc(N2CCN(CCO)CC2)n1 [Dasatinib] + COc1cc2c(Oc3ccc(NC(=O)C4(C(=O)Nc5ccc(F)cc5)CC4)cc3F)ccnc2cc1OCCCN1CCOCC1 [Foretinib] (partner 0.25 µM)
Summary of the method: as §1

Cell Line | relative viability (XMD13-2 + Decitabine; first compound 0.05 µM) | relative viability (XMD13-2 + Decitabine; first compound 0.1581 µM) | relative viability (XMD13-2 + Decitabine; first compound 0.5 µM) | relative viability (XMD13-2 + Decitabine; first compound 1.581 µM) | relative viability (XMD13-2 + Decitabine; first compound 5 µM) | relative viability (ALW-II-49-7 + Navitoclax; first compound 0.08 µM) | relative viability (ALW-II-49-7 + Navitoclax; first compound 0.253 µM) | relative viability (ALW-II-49-7 + Navitoclax; first compound 0.8 µM) | relative viability (ALW-II-49-7 + Navitoclax; first compound 8 µM) | relative viability (ALW-II-49-7 + Foretinib; first compound 0.253 µM) | relative viability (ALW-II-49-7 + Foretinib; first compound 0.8 µM) | relative viability (ALW-II-49-7 + Foretinib; first compound 2.53 µM) | relative viability (ALW-II-49-7 + Foretinib; first compound 8 µM) | relative viability (Dasatinib + Foretinib; first compound 0.005 µM) | relative viability (Dasatinib + Foretinib; first compound 0.01581 µM) | relative viability (Dasatinib + Foretinib; first compound 0.05 µM) | relative viability (Dasatinib + Foretinib; first compound 0.1581 µM) | relative viability (Dasatinib + Foretinib; first compound 0.5 µM) | relative viability (ALW-II-49-7 + Navitoclax; first compound 2.53 µM) | relative viability (ALW-II-49-7 + Foretinib; first compound 0.08 µM)
LK-2 | 0.378 | 0.297 | 0.274 | 0.281 | 0.329 | 0.887 | 0.802 | 0.945 | 0.745 | 0.884 | 1.27 | 0.958 | 1.31 | 1.08 | 0.967 | 0.656 | 0.588 | 0.304 | – | –
ChaGo-K-1 | 0.521 | 0.53 | 0.528 | 0.511 | 0.496 | 0.931 | 1.45 | 1.27 | 0.753 | 0.968 | 0.931 | 0.905 | 0.91 | 0.922 | 0.881 | 0.874 | 0.725 | 0.667 | 1.29 | 0.971
HCC-827 | 0.317 | 0.365 | 0.281 | 0.719 | 0.343 | 0.981 | 1.05 | 1.08 | 0.987 | 1.13 | 1.07 | 0.954 | 1.02 | 1.06 | 0.898 | 0.748 | 0.288 | 0.0947 | 1.01 | 1.02
NCI-H1993 | 0.625 | 0.552 | 0.663 | 0.632 | 0.669 | 0.85 | 0.927 | 0.904 | 1.08 | 0.852 | 0.797 | 0.756 | 0.892 | 0.641 | 0.59 | 0.561 | 0.472 | 0.496 | 0.785 | 0.7
NCI-H647 | 0.398 | 0.329 | 0.471 | 0.392 | 0.326 | 1.03 | 1.3 | – | 0.716 | 1.32 | 1.23 | 1.09 | 1.06 | 1.11 | 1.17 | 0.649 | 0.276 | 0.252 | 0.479 | 1.36
NCI-H460 | 0.607 | 0.513 | 0.54 | 0.552 | 0.454 | 1.17 | 1.08 | 1.11 | 1.09 | 1.05 | 0.84 | 1.02 | 0.899 | 1.04 | 0.904 | 0.808 | 0.716 | 0.746 | 1.25 | 1.09
EMC-BAC-2 | 1.09 | 0.967 | 0.997 | – | 0.878 | 0.972 | 1.19 | 1.18 | 1.07 | 1.04 | 0.989 | 0.885 | 0.878 | 0.862 | 0.733 | 0.573 | 0.297 | 0.242 | 1.01 | 0.968
NCI-H23 | 0.271 | 0.335 | 0.329 | 0.33 | 0.301 | 0.968 | 0.92 | 0.848 | 0.787 | 1.01 | 1.06 | 0.993 | 1.03 | 0.864 | 0.649 | 0.676 | 0.457 | 0.484 | 0.766 | 0.923
NCI-H1793 | 0.517 | 0.481 | 0.581 | 0.431 | 0.507 | 0.268 | 0.505 | 0.463 | 0.463 | 0.642 | 0.728 | 0.701 | 0.855 | 0.553 | 0.528 | 0.374 | 0.337 | 0.359 | 0.363 | 0.667
A-427 | 0.574 | 0.553 | 0.612 | – | 0.503 | 1.07 | 0.942 | 0.998 | 1.05 | 0.95 | 1.12 | 1.14 | 1.2 | 0.971 | 1.04 | 0.974 | 0.694 | 0.599 | 0.994 | 1.16
NCI-H322M | 0.73 | 0.718 | 0.791 | – | 0.742 | 1.22 | 1.31 | 1.24 | 1.09 | 0.996 | 0.908 | 0.771 | 0.962 | 0.909 | 0.75 | 0.485 | 0.285 | 0.233 | 1.26 | 0.825
COR-L23 | 0.438 | 0.399 | 0.513 | 0.458 | 0.376 | 1.14 | 0.954 | 1.04 | 1.27 | 1.09 | 0.903 | 0.913 | 0.945 | 0.915 | 0.904 | 0.829 | 0.535 | 0.549 | 0.805 | 1.1
NCI-H2085 | 0.622 | 0.525 | 0.593 | 0.51 | 0.563 | 1.13 | 1.15 | 1.14 | 1.08 | 0.876 | 0.989 | 1.06 | 1.02 | 0.855 | 0.783 | 0.338 | 0.198 | 0.173 | 1.18 | 1.08
NCI-H2087 | 0.322 | 0.291 | 0.344 | 0.26 | 0.279 | 1.12 | 0.937 | 0.838 | 0.949 | 1.12 | 1.09 | 1.08 | 1.04 | 1.2 | 1.16 | 1.31 | 0.756 | 0.464 | 0.907 | 1.22
HCC-366 | 0.332 | 0.34 | 0.33 | 0.341 | 0.378 | 1.04 | 1.29 | 1.08 | 1.11 | 1.02 | 0.941 | 1 | 1.08 | 0.739 | 0.588 | 0.543 | 0.563 | 0.449 | 1.11 | 1
NCI-H2126 | 0.598 | 0.56 | 0.545 | 0.539 | 0.619 | 0.86 | 0.934 | 0.855 | 0.862 | 0.998 | 1.21 | 0.998 | 1.11 | 1.18 | 0.799 | 1.2 | 0.852 | 0.425 | 0.877 | 0.805
